Assays:
[1] = tested on: postmenopausal women with frequent, moderate to severe vasomotor symptoms (hot flashes); test: Phase 2a study: hot flash frequency, severity and composite score; type: in vivo, human (postmenopausal women); details: 10 mg
From the text: A phase 2a study was undertaken to assess the effect of (R)-6-(2-(ethyl(4-(2-(ethylamino)ethyl)benzyl)amino)-4-methoxyphenyl)-5,6,7,8-tetrahydronaphthalen-2-ol dihydrochloride (referred to as “drug” in tables below) to alleviate hot flashes in postmenopausal women. The study design and objectives are detailed below.
This is a randomized, placebo-controlled, double-blind, parallel-group, Phase 2, multi-center, dose-finding study to evaluate the effects of (R)-6-(2-(ethyl(4-(2-(ethylamino)ethyl)benzyl)amino)-4-methoxyphenyl)-5,6,7,8-tetrahydronaphthalen-2-ol dihydrochloride in the treatment of vasomotor symptoms in postmenopausal women.
A total of 100 eligible patients will be randomized to receive one of 5 blinded treatment regimens. (R)-6-(2-(ethyl(4-(2-(ethylamino)ethyl)benzyl)amino)-4-methoxyphenyl)-5,6,7,8-tetrahydronaphthalen-2-ol dihydrochloride at doses 0, 10, 25, 50 or 100 mg will be dosed for 28-days.
Patients will document in real time hot flash frequency and severity according to a predetermined scale, in the provided electronic or paper Study Diary. Study Diary entries of hot flash frequency and severity and associated symptoms will be reviewed at each study visit. Serum markers of estrogen effect will be measured at specific study visits while on treatment.
The efficacy endpoints assessed are: • Change in frequency of hot flashes over time • Change in severity of hot flashes over time; • Change in composite score of hot flashes over time (frequency×severity)
(R)-6-(2-(ethyl(4-(2-(ethylamino)ethyl)benzyl)amino)-4-methoxyphenyl)-5,6,7,8-tetrahydronaphthalen-2-ol dihydrochloride was provided by sponsor in capsule form for oral administration. All doses (0, 10, 25, 50 and 100 mg) were provided as identical presentations. Each patient was provided with 2 containers of 28-capsules each at the start of treatment and took one capsule from each container every day for 28-days. Placebo contained the same excipients as active medication, but without (R)-6-(2-(ethyl(4-(2-(ethylamino)ethyl)benzyl)amino)-4-methoxyphenyl)-5,6,7,8-tetrahydronaphthalen-2-ol dihydrochloride. The patients were instructed to take the capsules orally in the fasted state (morning).
Changes in the efficacy endpoints of frequency, severity, and composite score of hot flashes over time; associated hot flash symptoms (palpitations, insomnia, joint aches, and headaches), PD markers of estrogen effect (FSH, LH, and lipid profile), drug levels, and MRS were to be summarized using descriptive statistics. Frequency, severity, and composite score of hot flashes over time were to be analyzed using repeated measures analysis of variance (ANOVA) with factors for treatment (treatment groups), time (study day) and their interaction. A linear trend test for treatment groups (placebo, and 10, 25, 50, 100 mg doses of drug) and for study day as well as any potential interaction between the two was to be included as part of the analyses by including both dose and time as continuous variables in the ANOVA model. Pair-wise comparisons of change from baseline were to be tested between the placebo group and each drug dose group for each timepoint; the mean difference together with a 95% confidence interval of the difference was to be presented for placebo compared with each active treatment group. Nominal p-values at Week 4 were to be presented. In addition, graphical presentations of mean (±standard error of the mean) and percent group responses over time together with repeated measures ANOVA to assess potential trend in responses over time in each dose group were to be presented. For the associated vasomotor symptoms (palpitations, insomnia, joint aches, and headaches collected in the patient diaries), patient and event frequencies were to be summarized by treatment week and treatment group.
Hot flashes were also scored according to their severity with a mild hot flash scored a “1”, a moderate hot flash scored a “2” and a severe hot flash scored a “3”. […]

[2] = tested on: mammary carcinoma cells (MCF-7); test: Estrogen-dependent proliferation of MCF-7 cells (preclinical data); type: cell-based
From the text: The results of a phase 2a clinical study assessing the effects of the selective estrogen receptor modulator (SERM) (R)-6-(2-(ethyl(4-(2-(ethylamino)ethyl)benzyl)amino)-4-methoxyphenyl)-5,6,7,8-tetrahydronaphthalen-2-ol on women suffering from hot flushes are reported herein.

## CCNCCc1ccc(CN(CC)c2cc(OC)ccc2[C@@H]2CCc3cc(O)ccc3C2)cc1 [compound of formula I, (R)-6-(2-(ethyl(4-(2-(ethylamino)ethyl)-benzyl)amino)-4-methoxyphenyl)-5,6,7,8-tetrahydronaphthalen-2-ol]
[1]; cohort with 2 hour postdose plasma concentration 0.43 ng/mL to 0.53 ng/mL
  hot flush frequency reduction: −75%
[1]; higher concentration cohort, 2 hour postdose plasma concentration 0.66 ng/mL to 1.34 ng/mL
  hot flush frequency reduction: −77%
[2]
  antagonism of estradiol stimulation on MCF-7 cells: potent antagonist of estradiol stimulation
[2]; compared with prototypical estrogen agonists (e.g. estradiol)
  stimulation of estrogen-dependent proliferation of MCF-7 cells (agonism): does not stimulate estrogen-dependent proliferation

Source: US9555014B2, “Therapeutic regimens” (Radius Health, Inc., priority 2010, dated 2017)
